Results published in patent US20250129096A1, “ANNULATED 2-AMINO-3-CYANO THIOPHENES AND DERIVATIVES FOR THE TREATMENT OF CANCER” (Boehringer Ingelheim Int'l GmbH Corp., priority 2021, published 2025).

Legend:
[1] = biological target: T1, CYP3A4 (Homo sapiens, UniProt P08684); test: Mechanism based inhibition of CYP3A4 assay (MBI 3A4); type: in vitro ADME; conditions: 25 uM, hydroxy-midazolam formation after 30 min preincubation relative to 0 min, human liver microsomes
T1 construct: assayed in human liver microsomes (0.02 mg/mL) with midazolam (15 μM) as a substrate; from tissue; host or cells: human liver microsomes
T1 sequence (P08684 whole entry): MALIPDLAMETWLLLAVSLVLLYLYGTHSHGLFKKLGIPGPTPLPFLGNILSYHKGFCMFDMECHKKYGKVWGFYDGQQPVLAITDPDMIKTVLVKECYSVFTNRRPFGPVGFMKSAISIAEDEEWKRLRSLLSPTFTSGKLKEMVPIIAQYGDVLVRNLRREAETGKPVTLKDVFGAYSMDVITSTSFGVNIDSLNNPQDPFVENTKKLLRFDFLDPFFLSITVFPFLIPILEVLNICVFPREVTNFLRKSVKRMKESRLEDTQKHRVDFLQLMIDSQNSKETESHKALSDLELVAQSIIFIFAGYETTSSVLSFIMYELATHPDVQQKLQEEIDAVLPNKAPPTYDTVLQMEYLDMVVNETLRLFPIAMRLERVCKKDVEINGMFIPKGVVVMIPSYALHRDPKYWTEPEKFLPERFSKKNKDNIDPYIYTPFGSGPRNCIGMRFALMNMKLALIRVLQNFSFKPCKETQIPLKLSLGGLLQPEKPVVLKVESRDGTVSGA
Protocol: After preincubation, the incubate is diluted 1:10 and the substrate midazolam is added for the main incubation (15 min). The main incubation is quenched with acetonitrile and the formation of hydroxy-midazolam is quantified via LC/MS-MS. The formation of hydroxy-midazolam from the 30 min preincubation relative to the formation from the 0 min preincubation is used as a readout. Values of less than 100% mean that the substrate midazolam is metabolized to a lower extent upon 30 min preincubation compared to 0 min preincubation. In general low effects upon 30 min preincubation are desired (corresponding to values close to 100%/not different to the values determined with water control).

[2] = Caco-2 assay; type: in vitro ADME; conditions: human; for Papp A→B at 90 min, 10 μM: Caco-2, apical to basolateral, pH 7.4, read-out: Caco PappAB; for efflux ratio at 90 min, 10 μM: Caco-2, pH 7.4, efflux ratio PappBA/PappAB, read-out: Caco ER
From the text: The assay provides information on the potential of a compound to pass the cell membrane, on the extent of oral absorption as well as on whether the compound is actively transported by uptake and/or efflux transporters. Permeability measurements across polarized, confluent Caco-2 cell monolayers grown on permeable filter supports (Corning, catalog #3391) are used. […] The receiver and donor compartments contain 0.25% bovine serum albumine (BSA) in assay buffer. Passive diffusion and/or active transport of compounds across the monolayer is measured in both apical to basolateral (a-b) and basolateral to apical (b-a) direction. a-b permeability (PappAB) represents drug absorption from the intestine into the blood and b-a permeability (PappBA) drug secretion from the blood back into the intestine via both passive permeability as well as active transport mechanisms mediated by efflux and uptake transporters that are expressed on the Caco-2 cells. After a pre-incubation of 25-30 min at 37° C., at predefined time points (0, 30, 60 and 90 min), samples were taken from the receiver and donor compartment, respectively. Concentrations of test compounds in samples were measured by HPLC/MS/MS, samples from the donor compartment were diluted 1:50 (v:v) with assay buffer, samples from receiver compartment were measured without dilution.
Apparent permeabilities in a-b (PappAB) and b-a (PappBA) directions are calculated according to the formula:
[formula] • Vrec [mL]: buffer volume in receiver compartment • Cdon [μmol/mL]: concentration of test compound in donor compartment at t=0 • ΔCrec: difference between concentrations of test compound in receiver compartment at start and end of incubation time • Δt: Incubation time • Vrec·ΔCrec/Δt [μmol/min]: Amount of compound transferred to receiver compartment per time • A [cm^2]: filter surface
Caco-2 efflux ratios (ER) are calculated as the ratio of PappBA/PappAB.

[3] = tested on: NCI-H358 cells (NSCLC, G12C); test: NCI-H358 CTG proliferation assay (120 h), assay 2; type: cell-based; conditions: Homo sapiens, CellTiter-Glo, 384-well, 200 cells per well
Protocol: NCI-1H358 cells (ATCC No. CRL-5807) are dispensed into white bottom opaque 96 well plates (Perkin Elmer cat no. 5680) at a density of 2000 cells per well in 100 μL RPM 1-1640 ATCC-Formulation (Gibco #A10491)+10% FCS (fetal calf serum) (assay 1) or into black 384-well plates, flat and clear bottom (Greiner, PNr. 781091) at a density of 200 cells per well in 60 μl RPMI-1640 ATCC-Formulation (Gibco #A10491)+10% FCS (fetal calf serum) (assay 2). […] Compounds (10 mM stock in DMSO) are added at logarithmic dose series using the HP Digital Dispenser D300 (Tecan) (assay 1) or the ECHO acoustic liquid handler system (Beckman Coulter) (assay 2), normalizing for added DMSO and including DMSO controls. For the TO time point measurement, untreated cells are analyzed at the time of compound addition. Plates are incubated for 120 h, and cell viability is measured using CellTiter-Glo luminescent cell viability reagent (Promega product code G7570). Viability (stated as percent of control) is defined as relative luminescence units RLU of each well divided by the RLU of cells in DMSO controls. IC50 values are determined from viability measurements by non-linear regression using a four-parameter model.

[4] = biological target: T2, KRAS (G12V)::SOS1 (Homo sapiens, UniProt P01116, C118S/G12V); test: KRAS::SOS1 AlphaScreen binding assay, KRAS G12V
T2 construct: KRAS (G12V) 1-169, N-terminal 6His-tag, for purification, cleaved off; 6His-tag (N, cleaved yes); TEV cleavage site
T2 sequence (P01116 1-169 isoform P01116-2 G12V/C118S): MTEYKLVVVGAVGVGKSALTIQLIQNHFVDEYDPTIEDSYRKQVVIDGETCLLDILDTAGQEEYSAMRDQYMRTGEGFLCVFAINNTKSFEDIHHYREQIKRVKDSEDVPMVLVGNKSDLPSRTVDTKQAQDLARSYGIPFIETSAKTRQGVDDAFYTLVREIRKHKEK
Protocol: Low IC50 values in this assay setting are indicative of strong inhibition of protein-protein interaction between SOS1 and KRAS:
These assays measure the inhibitory effect of compounds on KRAS mutant protein-protein interactions using the Alpha Screen technology by Perkin Elmer.
For the chosen highest assay concentration of 100 μM, 150 nL of compound solution are transferred from a 10 mM DMSO compound stock solution. A series of eleven fivefold dilutions per compound are transferred to the assay plate, compound dilutions are tested in duplicates. DMSO are added as backfill to a total volume of 150 nL.
The assays run on a fully automated robotic system in a darkened room below 100 Lux. To 150 nl of compound dilution 10 μl of a mix including KRAS mutant protein, SOS1 (final assay concentrations see above) and GDP nucleotide (Sigma G7127; final assay concentration 10 μM) in assay buffer (1×PBS, 0.1% BSA, 0.05% Tween 20) are added into columns 1-24. After 30 minutes incubation time 5 μl of Alpha Screen bead mix in assay buffer are added into columns 1-23.
Plates are kept at room temperature in a darkened incubator. After an additional 60 minutes incubation time the signal is measured in a PerkinElmer Envision HTS Multilabel Reader using the AlphaScreen specs from PerkinElmer.
IC50 values are calculated and analyzed with Boehringer Ingelheim's MEGALAB IC50 application using a 4 parametric logistic model.

[5] = tested on: GP2D cells (colorectal cancer, G12D); test: GP2D proliferation assay (120 h); type: cell-based; conditions: CellTiter-Glo
Protocol: GP2D cells (ATCC No. CRL-5807) are dispensed into white 384-well plates, flat and white bottom (Perkin Elmer, 6007680) at a density of 500 cells per well in 40 μl DMEM (Sigma, D6429)+1× GlutaMAX (Gibco, 35050038)+10% FCS (fetal calf serum). […] Compounds (10 mM stock in DMSO) are added at logarithmic dose series using the HP Digital Dispenser D300 (Tecan), including DMSO controls and normalizing for added DMSO. For the TO time point measurement, untreated cells are analyzed at the time of compound addition. Plates are incubated for 120 h, and cell viability is measured using CellTiter-Glo luminescent cell viability reagent (Promega product code G7570). Viability (stated as percent of control) is defined as relative luminescence units RLU of each well divided by the RLU of cells in DMSO controls. IC50 values are determined from viability measurements by non-linear regression using a four-parameter model.

SMILES	MBI 3A4 [1] [%]	Papp A→B at 90 min, 10 μM [2] [×10⁻⁶ cm/s]	efflux ratio at 90 min, 10 μM [2]	IC50 [3] [nM]	IC50 [4] [nM]	IC50 [5] [nM]
CCN1[C@H]2C[C@H]2C[C@H]1[C@H](C)Oc1nccc(-c2onc3c2CCC[C@@]32CCCc3sc(N)c(C#N)c32)n1 [Ie-3]				1710		
C[C@H]1CNCCN1c1nccc(-c2noc3c2CCC[C@@]32CCCc3sc(N)c(C#N)c32)n1 [IIf-1]		12		3000		228
C[C@H](Oc1ccnc(-c2noc3c2CCC[C@@]32CCCc3sc(N)c(C#N)c32)n1)[C@@H]1CCCN1C [IIb-3]	69	17	2	743	2	171
C[C@H]1CNCCCN1c1nccc(-c2onc3c2CCC[C@@]32CCCc3sc(N)c(C#N)c32)n1 [If-1]	60	9.4	3.2	2200	201	936
C[C@H](Oc1nccc(-c2onc3c2CCC[C@@]32CCCc3sc(N)c(C#N)c32)n1)[C@@H]1C[C@@H](F)CN1C [Ie-2]		33	0.6		23	526

Further lines, results first:

MBI 3A4 [1] [%]	Papp A→B at 90 min, 10 μM [2] [×10⁻⁶ cm/s]	efflux ratio at 90 min, 10 μM [2]	IC50 [3] [nM]	IC50 [4] [nM]	IC50 [5] [nM]	SMILES
65	13	1.2				C[C@H]1CNCCCN1c1nccc(-c2noc3c2CCC[C@@]32CCCc3sc(N)c(C#N)c32)n1 (single isomer, unassigned) [IIb-5]
			3570			C[C@H](Oc1nccc(-c2onc3c2CCC[C@@]32CCCc3sc(N)c(C#N)c32)n1)[C@@H]1C[C@@H]2C[C@@H]2N1C [Ih-1]
				8	69	C[C@H]1[C@@H]2CCCN2CCCN1c1nccc(-c2onc3c2CCC[C@@]32CCCc3sc(N)c(C#N)c32)n1 [Id-1]
